By pKi is commonly meant −log10 of the Ki, conventionally taken in molar units. Broadly, the pEC50 is the negative decadic logarithm of the EC50, by convention in mol/L.

The results in this text go back to patent publication US20240391930A1, “SPIROCYCLIC BICYCLIC MODULATORS OF CHOLESTEROL BIOSYNTHESIS AND THEIR USE FOR PROMOTING REMYELINATION” (GENENTECH, INC., priority 2021, published 2024).

In assay [1] the target is T1, human emopamil binding protein and human 7-dehydrocholesterol reductase (hEBP-DHCR7) (Homo sapiens, UniProt Q15125).
T1 construct: expressed in transfected cells; host or cells: HEK 293 cells, transient transfection with 2 DNA constructs
Nature of the assay: hEBP-DHCR7 radioligand filtration binding assay. The following applies: membranes of HEK293 co-expressing hEBP and DHCR7; [3H] 2-thia-6-azaspiro[3.4]octane radioligand; 8 doses 0.06 to 5000 nM. The protocol: Membrane Preparation: human emopamil binding protein and human 7-dehydrocholesterol reductase co-expressing cells were generated by transient transfecting host human embryonic kidney (HEK) 293 cells with 2 DNA constructs containing each protein's coding sequence. Cells were suspension cultured at 37° C. with 5% CO2 in […] 293 Expression Medium (Thermofisher). Whole cell membrane was prepared by harvesting the cell pellet, adding cold membrane buffer (50 mM Tris, pH7.5, lx Roche COMPLETE EDTA-free protease inhibitor cocktail) 10 times volume of the cell pellets weight, lysing cell pellet on ice by using Dounce homogenizer, spinning at 200 g 4° C. for 15 min, collecting supernatant and spinning again at 25000 g 4° C. for 50 min, transferring pellet to Dounce homogenizer, re-suspending pellet by homogenizing in membrane buffer on ice to reach ˜25 mg/mL, then keeping whole cell membrane aliquots at −80° C.
Compounds were prepared in a 96-well U bottom plate using an Echo550 machine and 10 mM compound DMSO stock solution, followed by an 8-dose 5-fold serial dilutions protocol with final testing compound concentration ranging from 0.06 to 5000 nM, with DMSO back fill to 100 nL/well and n=2. […] The UniFilter-96 GF/B plates were pre-treated by adding 50 µl/well of 0.3% (v/v) PEI to UniFilter-96 GF/B plates. The plates were sealed and incubated at 4° C. for 3 hrs. Then, the plates were washed with ice-cold assay buffer 3 times. The radioligand binding assay was prepared by adding assay buffer diluted hEBP-DHCR7 membrane at 66.7 μg/ml×150 l/well into the 96-well compound plate to reach 10 μg membrane per well. Then, the assay buffer diluted [3H]—((S)-6-(2-Methyl-3-(6-(trifluoromethyl)pyridin-3-yl)propyl)-2-thia-6-azaspiro[3.4]octane 2,2-dioxide or (R)-6-(2-Methyl-3-(6-(trifluoromethyl)pyridin-3-yl)propyl)-2-thia-6-azaspiro[3.4]octane 2,2-dioxide) was added at 25 nM×50 l/well. Following this, the plate was centrifuged at 1000 rpm for 30 secs. The plate was then sealed and agitated at 600 rpm at 22° C. for 5 min, and then incubated at 22° C. for 3 hrs. The incubation was stopped by transferring the binding solution to the pre-treated UniFilter-96 GF/B plate, vacuum filtrated, and then washed four times with ice-cold assay buffer. Following this, the plates were dried at 37° C. for 45 min. The plates were then sealed at the bottom. 40 µl/well of scintillation cocktail was added to the plates. A MicroBeta2 microplate counter was then used to read the plate and analyze the data. For reference and test compounds, the results are expressed as % Inhibition, using the normalization equation: N=100−100×(U−C2)/(C1−C2), where U is the unknown value, C1 is the average of high controls, and C2 is the average value of low controls. The IC50 was determined by fitting percentage of inhibition as a function of compound concentrations with Hill equation using XLfit. Results are expressed as hEBP-DHCR7 Ki (uM) in Table 4. Ki was calculated as described above; * indicates isolated isomer or isomers, but that the stereochemistry has not been assigned.

Assay [2] has as its system EpiSC-derived OPCs. Nature of the assay: In vitro phenotypic screening of OPCs (MBP high-content imaging). It is filed as cell-based. The following applies: Mus musculus, 72 h; percentage of MBP-positive oligodendrocytes, 3 days, 0.5 nM to 1000 nM; read-out: OPC EC50. As to the method: (§1) To assess effects of treatments on OPCs, all treatments were assayed in two or more independent platings of epiblast stem cell-derived OPCs (EpiSC). EpiSC-derived OPCs were obtained using in vitro differentiation protocols and culture conditions described previously (Najm et al, 2011, Nature Methods). OPCs were expanded and frozen down in aliquots. OPCs were thawed into growth conditions for at least one passage before use in further assays.
EpiSC-derived OPCs were grown and expanded in poly-L-ornithine (PO) and laminin-coated flasks in N2B27 media (DMEM/F12 (Gibco), N2-MAX (R&D Systems), B-27 (ThermoFisher), and GlutaMax (Gibco)) supplemented with FGF2 ([…], R&D systems, 233-FB-025) and PDGF-AA ([…], R&D systems, 233-AA-050) before harvesting for experiments. The cells were seeded onto poly-L-ornithine or poly-D-lysine coated CellCarrier Ultra plates (PerkinElmer) coated with laminin (Sigma, L2020) at a density of 150,000/cm^2 in N2B27 media without growth factors. For dose-response testing, a 1000× compound stock in dimethyl sulphoxide (DMSO) was added to assay plates, resulting in 8-point dose curves with final concentrations between 1000 nM and 0.5 nM. Positive controls and DMSO vehicle controls were included in each assay plate. Cells were incubated under standard conditions (37° C., 5% CO2) for 3 days and fixed with 4% paraformaldehyde (PFA) in phosphate buffered saline (PBS) for 20 min. Fixed plates were washed with PBS, permeabilized with 0.1% Triton X-100, and blocked with 10% donkey serum (v/v) in PBS for 40 min. Then, cells were labelled with MBP antibodies (Abcam, ab7349; 1:200) for 2 h at room temperature, washed with PBS, and stained with Alexa Fluor conjugated secondary antibodies (1:500) for 45 min. Nuclei were visualized by DAPI staining (Sigma; 1 μg/ml), followed by further PBS washes.
Cells and cell culture plates were imaged on the Operetta High Content Imaging and Analysis system (PerkinElmer). Analysis (PerkinElmer Harmony and Columbus software) began by identifying intact nuclei stained by DAPI. The peri-nuclear region of each cell was then cross-referenced with the […] (MBP) stain to identify oligodendrocyte nuclei, and from this the percentage of oligodendrocytes was calculated.

Assay [3] deals with zymostenol accumulation in EpiSC-derived OPCs (EBP). Nature of the assay: GC/MS-based sterol profiling (zymostenol accumulation). The assay is classed as cell-based. The following applies: Mus musculus, 24 hours, 8 doses from 0.15 nM to 333 nM, read-out: Zymostenol GCMS EC50. The protocol: as §1
Sterols were monitored using a modified Folch wash protocol (Hubler et al, 2018, Nature). EpiSC-derived OPCs were plated at 100,000 cells per well in PO- and laminin-coated 96-well plates in N2B27 media without growth factors. After 24 hours, cells were rinsed with saline and plates were frozen. Cholesterol-d7 standard was then added to each well before drying under nitrogen stream and derivatization with 55 μl of bis(trimethylsilyl) trifluoroacetamide. After derivatization, 2 μl were analyzed by gas chromatography/mass spectrometry using an Agilent 5973 Network Mass Selective Detector equipped with a 6890 gas chromatograph system and a HP-5MS capillary column (30 m×0.25 mm×[…]). Samples were analyzed in full scan mode using electron impact ionization; ion fragment peaks were integrated to calculate sterol abundance, and quantitation was relative to cholesterol-d7. The following ion fragments were used to quantitate each metabolite: cholesterol-d7 (465), FF-Mas (482), cholesterol (368), zymostenol (458), zymosterol (456), Desmosterol (456, 343), 7-dehydrocholesterol (456, 325), lanosterol (393), lathosterol (458), 14-dehydrozymostenol (456, 351). […] All standards were obtained from Avanti Polar Lipids unless otherwise indicated. Calibration curves were generated by injecting varying concentrations of sterol standards and maintaining a fixed amount of cholesterol-D7. For normalized zymostenol accumulation results, the total amount of zymostenol measured after drug treatment was divided by the total amount of zymostenol accumulated after 24 hr treatment with 100 nM positive control reference.

pEC50, pKi: −log10 of the molar value.

T1 sequence (Q15125 whole entry): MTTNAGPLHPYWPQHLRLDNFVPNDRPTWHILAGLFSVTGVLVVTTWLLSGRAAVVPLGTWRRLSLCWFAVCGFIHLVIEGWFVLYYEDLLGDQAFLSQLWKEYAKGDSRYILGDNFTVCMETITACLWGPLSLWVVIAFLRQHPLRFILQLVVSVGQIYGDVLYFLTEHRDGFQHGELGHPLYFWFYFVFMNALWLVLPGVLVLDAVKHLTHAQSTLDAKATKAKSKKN

`CC(C)(C)n1nc(C(F)(F)F)cc1[C@H]1[C@@H]2C[C@@H](N3CCC4(C3)CS(=O)(=O)C4)C[C@@H]21` (single isomer, unassigned) [Compound 57]: in assay [1], the pKi is 7.59. Besides, the pEC50 in assay [2] is 7.74; in assay [3] it was 8.46.
On to `CC(C)n1nc([C@H]2CC[C@H](C(F)(F)F)CC2)cc1[C@H]1[C@@H]2C[C@@H](N3CCC4(C3)CS(=O)(=O)C4)C[C@@H]21` (single isomer, unassigned) [Compound 107], for which the pKi in assay [1] is 7.80. The pEC50 in assay [2] is 7.28; in assay [3], 8.12.
On the same counts, the results for `CC(C)(C)n1nc(-c2cccc(C(F)(F)F)c2)nc1[C@H]1[C@@H]2C[C@@H](N3CCC4(C3)CS(=O)(=O)C4)C[C@@H]21` (single isomer, unassigned) [Compound 75] are 7.83, 8.21 and 8.66.
On the same counts, the results for `CC(C)n1nc(-c2ccc(C(F)(F)F)nc2)cc1[C@H]1[C@@H]2C[C@H](N3CCC4(C3)CS(=O)(=O)C4)C[C@@H]21` (single isomer, unassigned) [Compound 14] are 7.89, 8.54 and 8.70.
On the same counts, the results for `CC(C)n1nc(C(F)(F)F)cc1[C@H]1[C@@H]2C[C@@H](N3CCC4(CC3)CS(=O)(=O)C4)C[C@@H]21` (single isomer, unassigned) [Compound 43*] are 7.30, 7.32 and 7.96.
In the case of `CC(C)(C)n1nc(C(F)(F)F)cc1[C@H]1[C@@H]2C[C@@H](N3CCC4(CC3)CS(=O)(=O)C4)C[C@@H]21` (single isomer, unassigned) [Compound 55], the pEC50 in assay [2] is 8.48; in assay [3] it was 8.52.
As for `CCn1nc(-c2cccnc2)cc1[C@H]1[C@@H]2C[C@H](N3CCC4(C3)CS(=O)(=O)C4)C[C@@H]21` (single isomer, unassigned) [Compound 65*], in assay [1], the pKi was 7.28. The pEC50 in assay [2] was 7.19; in assay [3] it was 7.74.
The like results for `CCn1nc(-c2cncc(C(F)(F)F)c2)cc1[C@H]1[C@@H]2C[C@H](N3CCC4(CC3)CS(=O)(=O)C4)C[C@@H]21` (single isomer, unassigned) [Compound 54*] were, in that order, 7.48, 7.51 and 8.04.
On the same counts, the results for `CC(C)n1nc(-c2cccc(C(F)(F)F)c2)nc1[C@H]1[C@@H]2C[C@@H](N3CCC4(C3)CS(=O)(=O)C4)C[C@@H]21` [Compound 51, 6-((1R,3s,5S,6r)-6-(1-Isopropyl-3-(3-(trifluoromethyl)phenyl)-1H-1,2,4-triazol-5-yl)bicyclo[3.1.0]hexan-3-yl)-2-thia-6-azaspiro[3.4]octane 2,2-dioxide] are 7.93, 7.43 and 8.19.
Molecule `C[C@H](C(F)F)n1nc(C(F)(F)F)cc1[C@H]1[C@@H]2C[C@@H](N3CCC4(CC3)CS(=O)(=O)C4)C[C@@H]21` (racemic) [Compound 70*, 7-((1R,3S,5S,6r)-6-(1-((R)-1,1-difluoropropan-2-yl)-3-(trifluoromethyl)-1H-pyrazol-5-yl)bicyclo[3.1.0]hexan-3-yl)-2-thia-7-azaspiro[3.5]nonane 2,2-dioxide and 7-((1R,3R,5S,6r)-6-(1-((S)-1,1-difluoropropan-2-yl)-3-(trifluoromethyl)-1H-pyrazol-5-yl)bicyclo[3.1.0]hexan-3-yl)-2-thia-7-azaspiro[3.5]nonane 2,2-dioxide] showed a pKi in assay [1] of 7.26. In addition, the values for the pEC50 in assay [2] and in assay [3] were 7.62 and 8.03, respectively.
Consider `CC(C)n1nc(C(F)(F)F)cc1[C@H]1[C@@H]2C[C@@H](N3CCC[C@@]4(CCS(=O)(=O)C4)C3)C[C@@H]21` (single isomer, unassigned) [Compound 92*], for which the pEC50 in assay [2] is 7.23; in assay [3], 7.35.
On the same counts, the results for `CC(C)n1nc(-c2cccc(C(F)(F)F)c2)nc1[C@H]1[C@@H]2C[C@H](N3CCC4(CC3)CS(=O)(=O)C4)C[C@@H]21` [Compound 74, 7-((1R,3r,5S,6r)-6-(1-isopropyl-3-(3-(trifluoromethyl)phenyl)-1H-1,2,4-triazol-5-yl)bicyclo[3.1.0]hexan-3-yl)-2-thia-7-azaspiro[3.5]nonane 2,2-dioxide] are 7.89 and 8.41.
Turning to `CC(C)(C)n1nc(C(F)(F)F)cc1[C@H]1[C@@H]2C[C@H](N3CCC4(CC3)CS(=O)(=O)C4)C[C@@H]21` [Compound 56, 7-((1R,3r,5S,6r)-6-(1-(tert-butyl)-3-(trifluoromethyl)-1H-pyrazol-5-yl)bicyclo[3.1.0]hexan-3-yl)-2-thia-7-azaspiro[3.5]nonane 2,2-dioxide], the results for the pEC50 in assay [2] and in assay [3] were 7.72 and 8.24, respectively.
Consider `CC(C)n1nc([C@H]2CC[C@@H](C(F)(F)F)CC2)cc1[C@H]1[C@@H]2C[C@@H](N3CCC4(C3)CS(=O)(=O)C4)C[C@@H]21` (single isomer, unassigned) [Compound 106], for which, in assay [1], the pKi was 7.88. Also, in assay [3], the pEC50 is 7.84.
